Test results published in patent publication US20240376097A1, “BCL-2 Inhibitor” (BeiGene Ltd., priority 2020, published 2024).

What was measured:
[1] = biological target: recombinant human Bcl-2-G101V protein (Homo sapiens (Human), UniProt P10415, G101V); test: Bcl-2-G101V TR-FRET Assay; type: binding; conditions: Bcl-2 G101V mutant, TR-FRET; read-out: Biochemical assay (IC50, nM) Bcl-2 G101V
Summary of the method: (§1)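 Measures how compounds block Bcl-2-G101V engaging its ligand, by TR-FRET with 337 nm excitation and a 490/520 nm emission ratio; dose-response data give IC50 via a four-parameter logistic model.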

[2] = system: recombinant human Bcl-2-G101V protein; test: Bcl-2-G101V TR-FRET Assay; type: binding; conditions: for Ratio of Bcl-2 G101V/WT: ratio of biochemical IC50 Bcl-2 G101V / Bcl-2 WT; for ratio of IC50 of Bcl-2 G101V/Bcl-2 wt, compared with Example F132b in WO2019210828 and ABT-199 (venetoclax): comparison in words
Summary of the method: as §1

[3] = Metabolic Stability Study, liver microsome incubation (human); type: in vitro ADME; conditions: human liver microsomes 0.5 mg/mL, 1 μM compound, NADPH; for half-life at 1 μM: NA^# = very stable, beyond the detection limits, read-out: T1/2 (min) Human; for microsomal CLint at 1 μM: read-out: CLint (μL × min^−1 × mg^−1) Human
Protocol: (§2) Biological Example: Metabolic Stability Study
(§3) The metabolic stability of some compounds was evaluated by using the liver microsome incubation system in vitro. Briefly, the test compounds at 1 μM, were incubated with 0.5 mg/mL liver microsomes from different species (human, dog, rat and mouse) with an NADPH regenerating system at 37° C. Samples were quenched at three time points (0, 30, 60 min) with organic solvent containing internal standards, and the supernatant was analyzed for parent loss via LC-MS/MS. Midazolam was used as the positive control to validate the incubation system.
(§4) where Cprotein is the microsomal protein concentration in the incubation system.
(§5) The value of CLint and T1/2 of Example F132b in WO2019210818 and representative compounds of the disclosure were determined, and the results are shown in Table 5.

[4] = system: BCL-2 G101V knock-in cell line H96 (derive from RS4;11); test: Bcl 2-G101V Knock-In RS4;11 Cell Proliferation Assay; type: cell-based; conditions: Homo sapiens, RS4-11, 48 h, RS4;11 Bcl-2 G101V knock-in clone H96, 48 hrs, CellTiter-GLO, read-out: Cellular proliferation assay (IC50, nM) RS4
Summary of the method: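 CellTiter-Glo luminescence after 48 h, 37 °C compound treatment (10 concentrations, maximum 1 μM or 10 μM) gave mean IC50 values. Cells were 50,000 per well of H96, a BCL2-G101V knock-in single clone derived from RS4;11 by Cas9 editing.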

[5] = Metabolic Stability Study, liver microsome incubation (mouse); type: in vitro ADME; conditions: mouse liver microsomes 0.5 mg/mL, 1 μM compound, NADPH; for half-life at 1 μM: NA^# = very stable, beyond the detection limits, read-out: T1/2 (min) mouse; for microsomal CLint at 1 μM: read-out: CLint (μL × min^−1 × mg^−1) mouse
Protocol: as §2, §3, §4, §5

SMILES	IC50 [1] [nM]	Ratio of Bcl-2 G101V/WT [2]	half-life at 1 μM [3] [min]	microsomal CLint at 1 μM [3] [µL/min/mg]	IC50 [4] [nM]	half-life at 1 μM [5] [min]	microsomal CLint at 1 μM [5] [µL/min/mg]	ratio of IC50 of Bcl-2 G101V/Bcl-2 wt, compared with Example F132b in WO2019210828 and ABT-199 (venetoclax) [2]
CC(C)c1ccccc1C1CN(Cc2cc(F)cc(F)c2)CCN1C1CC2(CCN(c3ccc(C(=O)NS(=O)(=O)c4ccc(NC[C@H]5CC[C@](C)(O)CC5)c([N+](=O)[O-])c4)c(Oc4cnc5[nH]ccc5c4)c3)CC2)C1 (stereo partly drawn) [Example 51, 2-((1H-pyrrolo[2,3-b]pyridin-5-yl)oxy)-4-(2-(4-(3,5-difluorobenzyl)-2-(2-isopropylphenyl)piperazin-1-yl)-7-azaspiro[3.5]nonan-7-yl)-N-((4-((((1r,4r)-4-hydroxy-4-methylcyclohexyl)methyl)amino)-3-nitrophenyl)sulfonyl)benzamide]	1.6	3.8	234	5.9	4	306	4.5	–
CC(C)c1ccccc1C1CN(Cc2ccc(F)c(F)c2)CCN1C1CC2(CCN(c3ccc(C(=O)NS(=O)(=O)c4ccc(NC[C@H]5CC[C@](C)(O)CC5)c([N+](=O)[O-])c4)c(Oc4cnc5[nH]ccc5c4)c3)CC2)C1 (stereo partly drawn) [Example 52, 2-((1H-pyrrolo[2,3-b]pyridin-5-yl)oxy)-4-(2-(4-(3,4-difluorobenzyl)-2-(2-isopropylphenyl)piperazin-1-yl)-7-azaspiro[3.5]nonan-7-yl)-N-((4-((((1r,4r)-4-hydroxy-4-methylcyclohexyl)methyl)amino)-3-nitrophenyl)sulfonyl)benzamide]	0.73	3.0	145	9.5	2.7	–	< 1	–
COc1ccc(CN2CCN(C3CC4(CCN(c5ccc(C(=O)NS(=O)(=O)c6ccc(NC[C@H]7CC[C@](C)(O)CC7)c([N+](=O)[O-])c6)c(Oc6cnc7[nH]ccc7c6)c5)CC4)C3)C(c3ccccc3C(C)C)C2)cn1 (stereo partly drawn) [Example 72, 2-((1H-pyrrolo[2,3-b]pyridin-5-yl)oxy)-N-((4-((((1r,4r)-4-hydroxy-4-methylcyclohexyl)methyl)amino)-3-nitrophenyl)sulfonyl)-4-(2-(2-(2-isopropylphenyl)-4-((6-methoxypyridin-3-yl)methyl)piperazin-1-yl)-7-azaspiro[3.5]nonan-7-yl)benzamide]	0.2	4	491	2.8	1.7	159	8.7	–
CC(C)c1ccccc1[C@@H]1CN(Cc2cccc3c2OCCO3)CCN1C1CC2(CCN(c3ccc(C(=O)NS(=O)(=O)c4ccc(NC[C@H]5CC[C@](C)(O)CC5)c([N+](=O)[O-])c4)c(Oc4cnc5[nH]ccc5c4)c3)CC2)C1 [Example 79a, 2-((1H-pyrrolo[2,3-b]pyridin-5-yl)oxy)-4-(2-(R-4-((2,3-dihydrobenzo [b][1,4]dioxin-5-yl)methyl)-2-(2-isopropylphenyl)piperazin-1-yl)-7-azaspiro[3.5]nonan-7-yl)-N-((4-((((1r,4r)-4-hydroxy-4-methylcyclohexyl)methyl)amino)-3-nitrophenyl)sulfonyl)benzamide]	0.25	2.4	253	5.5	0.48	124	11.2	–
COc1ccc(CN2CCN(C3CC4(CCN(c5ccc(C(=O)NS(=O)(=O)c6ccc(NC[C@H]7CC[C@](C)(O)CC7)c([N+](=O)[O-])c6)c(Oc6cnc7[nH]ccc7c6)c5)CC4)C3)[C@H](c3ccccc3C(C)C)C2)cc1OC [Example 81a, 2-((1H-pyrrolo[2,3-b]pyridin-5-yl)oxy)-4-(2-((R)-4-(3,4-dimethoxybenzyl)-2-(2-isopropylphenyl)piperazin-1-yl)-7-azaspiro[3.5]nonan-7-yl)-N-((4-((((1r,4r)-4-hydroxy-4-methylcyclohexyl)methyl)amino)-3-nitrophenyl)sulfonyl)benzamide]	0.075	2.0	–	< 1	0.48	219	6.32	–
COc1ccc(CN2CCN(C3CC4(CCN(c5ccc(C(=O)NS(=O)(=O)c6ccc(NC[C@H]7CC[C@](C)(O)CC7)c([N+](=O)[O-])c6)c(Oc6cnc7[nH]cc(F)c7c6)c5)CC4)C3)[C@H](c3ccccc3C(C)C)C2)cc1OC [Example 127, 4-(2-((R)-4-(3,4-dimethoxybenzyl)-2-(2-isopropylphenyl)piperazin-1-yl)-7-azaspiro[3.5]nonan-7-yl)-2-((3-fluoro-1H-pyrrolo[2,3-b]pyridin-5-yl)oxy)-N-((4-((((1r,4r)-4-hydroxy-4-methylcyclohexyl)methyl)amino)-3-nitrophenyl)sulfonyl)benzamide]	0.13	1.8	–	< 1	0.367	182	7.63	much lower
COc1ccc(CN2CCN(C3CC4(C3)CN(c3ccc(C(=O)NS(=O)(=O)c5ccc(NC[C@H]6CC[C@](C)(O)CC6)c([N+](=O)[O-])c5)c(Oc5cnc6[nH]cc(F)c6c5)c3)C4)[C@H](c3ccccc3C(C)C)C2)cc1OC [Example 141a, 4-(6-((R)-4-(3,4-dimethoxybenzyl)-2-(2-isopropylphenyl)piperazin-1-yl)-2-azaspiro[3.3]heptan-2-yl)-2-((3-fluoro-1H-pyrrolo[2,3-b]pyridin-5-yl)oxy)-N-((4-((((1r,4r)-4-hydroxy-4-methylcyclohexyl)methyl)amino)-3-nitrophenyl)sulfonyl)benzamide]	0.13	2.5	343	4	0.268	18100	0.07	much lower
COc1ccc(CN2CCN(C3CC4(C3)CN(c3ccc(C(=O)NS(=O)(=O)c5ccc(NC[C@H]6CC[C@](C)(O)CC6)c([N+](=O)[O-])c5)c(Oc5cnc6[nH]ccc6c5)c3)C4)[C@H](c3ccccc3C(C)C)C2)cc1OC [Example 145, 2-((1H-pyrrolo[2,3-b]pyridin-5-yl)oxy)-4-(6-((R)-4-(3,4-dimethoxybenzyl)-2-(2-isopropylphenyl)piperazin-1-yl)-2-azaspiro[3.3]heptan-2-yl)-N-((4-((((1r,4r)-4-hydroxy-4-methylcyclohexyl)methyl)amino)-3-nitrophenyl)sulfonyl)benzamide]	0.084	3	970	1.4	0.23	196	7.1	much lower
COc1ccc(CN2CCN(C3CC4(C3)CN(c3ccc(C(=O)NS(=O)(=O)c5ccc(NC[C@H]6CC[C@](C)(O)CC6)c([N+](=O)[O-])c5)c(Oc5cnc6[nH]ccc6c5)c3)C4)[C@H](c3ccccc3C(C)C)C2)cc1 [Example 147, 2-((1H-pyrrolo[2,3-b]pyridin-5-yl)oxy)-N-((4-((((1r,4r)-4-hydroxy-4-methylcyclohexyl)methyl)amino)-3-nitrophenyl)sulfonyl)-4-(6-((R)-2-(2-isopropylphenyl)-4-(4-methoxybenzyl)piperazin-1-yl)-2-azaspiro[3.3]heptan-2-yl) benzamide]	0.17	3.1	–	< 1	0.588	301	4.6	–
[2H]C([2H])([2H])Oc1ccc(CN2CCN(C3CC4(CCN(c5ccc(C(=O)NS(=O)(=O)c6ccc(NC[C@H]7CC[C@](C)(O)CC7)c([N+](=O)[O-])c6)c(Oc6cnc7[nH]cc(F)c7c6)c5)CC4)C3)[C@H](c3ccccc3C(C)C)C2)cc1OC([2H])([2H])[2H] [Example 198, 4-(2-((R)-4-(3,4-bis(methoxy-d3)benzyl)-2-(2-isopropylphenyl)piperazin-1-yl)-7-azaspiro[3.5]nonan-7-yl)-2-((3-fluoro-1H-pyrrolo[2,3-b]pyridin-5-yl)oxy)-N-((4-((((1r,4r)-4-hydroxy-4-methylcyclohexyl)methyl)amino)-3-nitrophenyl)sulfonyl)benzamide]	0.17	2.4	247	5.6	0.27	222	6.3	–
